Results as given in patent publication US20090069418A1, “Compositions and Methods for the Treatment of Disorders Associated with Aberrant Vasodilation” (priority 2007, published 2009).
Where two headings read alike, the source gives them in different places.

How the values were obtained:
mice [1] = assay type: in vivo
From the text: Male mice between the ages of 16-24 weeks were anesthetized with isoflurane (induction 4-5 vol %; maintenance 1-2 vol %), intubated with a 20G plastic IV catheter, and mechanically ventilated using a rodent ventilator (Inspira, volume-controlled, Harvard Apparatus, MA). ECG and rectal temperature were continuously monitored using a PC-based recording device (PowerLab 8/30, ADInstruments, Colorado Springs, Colo.). The animals were positioned in a right lateral decubital position on a heating pad and rectal temperature was maintained at 37° C. throughout the experiment. A PE-10 catheter was inserted into the left jugular vein for intravenous drug infusion. Using a dissecting microscope, a left-sided thoracotomy was performed in the 4th intercostal space. […] A ligature (8-0 Monosof MV-135-4, ⅜ 5 mm tapered needle, Syneture, Norwalk, Colo.) was placed around the left coronary artery (LCA) approximately 2 mm distal to the left atrial margin. The suture was fed through a short section of PE-10 tubing to form a snare to allow temporary occlusion. The LCA was occluded for 40 minutes; occlusion was confirmed by persistent ECG changes during occlusion and visual paling of the left ventricle (LV). After 40 minutes the snare was released and reperfusion was confirmed with visual hyperemia of the LV and return of the ECG changes. After 2 hours of reperfusion the LCA was re-occluded and fluorescent polymer microspheres (0.4% solution, diameter 1-10 μm; Duke Scientific Corporation, Palo Alto, Calif.) were infused via needle puncture of the LV apex. […] Heart was then excised, rinsed in normal saline, and the right and left atria were removed under the dissecting microscope. The remaining left and right ventricles were weighed and then sliced into seven sections (d=1 mm) for imaging and staining.
Heart sections were immediately photographed with a digital camera (Canon Powershot A620) under UV light for determination of AAR. Infarct size (I) was determined by staining the heart sections in 1% 2,3,5 triphenyltetrazolium chloride (TTC) in phosphate buffer at pH 7.4 for 10 minutes, followed by 10% neutral buffered formalin (NBF) bath overnight. Pictures were taken the next day under full spectrum light. TTC stained non-infarcted myocardium red, while infarcted myocardium remained white. Both AAR and I areas were calculated in a blinded fashion using standard imaging software (Photoshop Elements 4). A calibration ruler was present in each picture to convert pixels into volume. TTC slices were volume corrected for dehydration following formalin immersion.
The 14,15-EET was obtained from BIOMOL (Plymouth Meeting, Pa.). It was dissolved in a vehicle composed of 100% ethanol and saline (1:3), resulting in a final ethanol solution of 25%. […] SNC-162, a non-peptide δ-opioid receptor agonist, was used for comparison of the magnitude of cardioprotection found within the epoxide pathway. SNC-162 (0.1 μg/g iv over 10 minutes) was dissolved in 10% DMSO.

C57Bl/6 mice = test: Middle cerebral artery occlusion in mice, infarct size (Example 2); assay type: in vivo; conditions: MS-PPOH alone
Procedure: (2001) J. Neurosci., 21:7543-50). […] A small laser-Doppler probe was affixed to the skull to monitor cortical perfusion and verify vascular occlusion and reperfusion. […] After securing the filament in place, the surgical site was closed, and the animal was awakened and assessed at 2 hours of occlusion for neurological deficit using a simple neurological scoring system as follows: 0=no deficit, 1=failure to extend forelimb, 2=circling, 3=unilateral weakness, 4=no spontaneous motor activity. Mice with clear neurological deficit were re-anesthetized, laser-Doppler probe re-positioned over same site on the skull, and the occluding filament was withdrawn to allow for reperfusion. Mice were then allowed to recover and observed for 1 day. […] Slices were photographed, and infarcted (unstained) and uninfarcted (red color) areas were measured with MCID software (InterFocus Imaging Ltd, Linton, UK) and integrated across all five slices. To account for the effect of edema, the infarcted area was estimated indirectly by subtracting the uninfarcted area in the ipsilateral hemisphere from the contralateral hemisphere, and expressing infarct volume as a percentage of contralateral hemisphere. […] (2000) J. Physiol. Pharmacol., 51:655-72). […] Animals were randomly assigned to treatment groups.

[2] = AUDA-BE and its metabolites measured in brain tissue; assay type: in vivo, mice; conditions: for levels detected in homogenates of brain tissue: after AUDA-BE injection, methanol/chloroform extraction
From the text: This concentration was also biologically effective in lowering blood pressure in hypertensive model (Imig et al. (2005) Hypertension 46:975-81). Therefore, in these experiments, the levels of sEH inhibitors in the blood are in the concentration range expected to inhibit the enzyme.

[3] = system: neonatal murine cardiomyocytes; test: Oxygen-glucose deprivation of cultured cardiomyocytes transduced with TAT-hsEH, cell death by propidium iodide; assay type: cell-based; conditions: for cell survival after OGD: all polymorphisms/groups tested except Arg287Gln
Procedure: Post natal Day 7-8 C57BL\6 mice were used. 3-4 hearts were obtained from same-gender mice. Cells were dissociated with 0.625% wt/volume trypsin in Ca^2+ and Mg^2+ free HBSS. The cells were centrifuged and re-suspended in FBS-M199. Cells were supplemented with estrogen-free 15% FBS, 100 U/ml penicillin, 100 μg/ml streptomycin, and 25 μM cytosine arabinoside. The cells were then plated at 37° C. for 1 hour under a water-saturated atmosphere of 5% CO2-[…]. Suspended cells were collected and plated at 1.0×10^5 cells/cm^2 and incubated as above for 24 hours.
Six TAT-hsEH fusion proteins, including one wild type and five EPHX2 mutants (Lys55Arg, Arg103Cys, Cys154Tyr, Arg287Gln, and Arg103Cys/Arg287Gln), were expressed and purified as reported (Koerner et al. (2007) J. Neurosci., 27:4642-4649).
TAT-hsEH fusion proteins were added to the medium of cultured cardiomyocytes to the final concentration of 100 nM. The cells were incubated at 37° C. for 24 hours before the onset of oxygen-glucose deprivation.
For oxygen-glucose deprivation (OGD), cells were placed in a Plexiglas hypoxia chamber under 100% N2 at 37° C. and glucose-free medium (MEM/HBSS). For reoxygenation, cells were placed in 21% O2 (5% CO2) and glucose-replete FBS-M199 medium.
Cell death was assessed via propidium iodide (PI, 5 μM) with >300 cells/sample.
Cultured neonatal murine cardiomyocytes were transduced with five human EPHX2 variants linked to the protein transduction domain TAT. Cultures were subjected to 1.5 hours of oxygen and glucose deprivation followed by 3 hours of re-oxygenation, with or without sEH substrate 14,15-EET. Cell death was assessed by propidium iodide (% of all cells, mean±SEM, n=5-9 replicates). Successful transduction was confirmed by immunoblot. All mutants reduced cell death compared to the human wild-type EPHX2 (rh-sEHWT, 63±1%), but only the Arg287Gln mutations was different from untransduced controls (FIG. 13B).

mice [4] = test: MCAO in mice, infarct size (Example 6); assay type: in vivo
From the text: Transient focal cerebral ischemia was induced in adult male mice (20 to 26 g body weight) using the intraluminal MCAO technique, as previously described (Alkayed et al. (2001) J. Neurosci., 21:7543-7550). Briefly, mice were anesthetized with halothane (1.5 to 2% in O2-enriched air by face mask), and kept warm with water pads. A small laser-Doppler probe was affixed to skull to monitor cortical perfusion and verify vascular occlusion and reperfusion. A silicone-coated 6-0 nylon monofilament was inserted into the right internal carotid artery (ICA) via the external carotid artery (ECA) until laser-Doppler signal dropped to <30% of baseline. After securing the filament in place, the surgical site was closed, and the animal was awakened and assessed at 2 hours of occlusion for neurological deficit using a simple neurological scoring system as follows: 0=no deficit, 1=failure to extend forelimb, 2=circling, 3=unilateral weakness, 4=no spontaneous motor activity. […] Infarct size was measured at 24 hours after MCAO in 2-mm thick coronal brain sections (5 total) using 2,3,5-triphenyltetrazolium chloride (TTC) staining and digital image analysis. […] Slices were photographed and infracted (unstained) and uninfarcted (red color) areas were measured with MCID software (InterFocus, Linton, England) and integrated across all 5 slices. […]

[5] = Pharmacokinetics of AUDA-BE and its metabolites in plasma after single intraperitoneal injection; assay type: in vivo, C57Bl/6 mice
Procedure: A second set of animals was injected with sesame oil alone (vehicle). […] (2002) Biochem. Pharmacol., 63:1599-608; Watanabe et al. (2006) Anal. Chim. Acta., 559:37-44). Briefly, blood samples (10 μL) were collected in 1.5 mL Eppendorf microcentrifuge tubes, weighed, and vortexed with 100 μL of purified water. […] Aliquots (10 μL) were analyzed by liquid chromatography coupled mass spectroscopy LC-MS/MS (Watanabe et al. (2006) Anal. Chim. Acta., 559:37-44; Watanabe and Hammock (2001) Anal. Biochem., 299:227-34). The concentration of sEH inhibitors were quantified in extracts using HPLC with positive mode electrospray ionization and tandem mass spectrometry. Analytes were quantified on a 5-point curve with internal standard methods. Surrogate recoveries were evaluated by quantification against the internal standard. Surrogate recoveries were 70% for all reported plasma samples, the analysis of reagent blanks, matrix spikes, and analytical replicates were used to document method stability during this study. […] Differences in infarct size, enzyme activity, and blood flow rates were analyzed with a t-test for two groups and analysis of variance with post hoc Newman-Keuls multiple range test for multiple groups. The pharmacokinetic profile was examined for goodness of fit to a noncompartmental or multicompartmental models. Pharmacokinetic parameters were then obtained by fitting the blood-concentration-time data to a non-compartmental model with the WinNonlin software (Pharsight, Mountain View, Calif., USA), as described previously (Watanabe et al. (2006) Anal. Chim. Acta., 559:37-44). The criterion for statistical significance was set at P<0.05. All values are reported as mean±s.e.m.

[6] = given prior to LCA occlusion (PRE)
[7] = single injection of 10 mg/kg AUDA-BE
[8] = AUDA-BE 10 mg/kg intraperitoneal

Question: With `C=CCN1C[C@H](C)N([C@@H](c2ccccc2)c2ccc(C(=O)N(CC)CC)cc2)C[C@H]1C` [SNC-162] as the compound, how does the “Infarct Volume” value (mice [1]; [6]) read?
Answer: The value was 9 ± 2 mm^3.

Question: For `C#CCOc1ccccc1CCCCCC(=O)NS(C)(=O)=O` [MS-PPOH, N-methylsulfonyl-6-(2-propargyloxyphenyl)hexanamide], which “infarct size after MCAO” value (C57Bl/6 mice) is on record?
Answer: The value was 24±6%.

Question: For “12-(3-adamantan-1-yl-ureido)-butyl acid [AUBA]”, which “levels detected in homogenates of brain tissue” value [2] is on record?
Answer: Its value is “not”.

Question: For `O=C(c1ccccc1)C1OC1c1ccc(-c2ccccc2)cc1` (stereo not shown) [4-PCO, 4-phenylchalcone oxide], which “cell survival after OGD” value [3] is on record?
Answer: Its value is “improved cell survival significantly”.

Question: Which “cell survival after OGD” value [3] does the source give for `CCCCCC1OC1C/C=C\C/C=C\C/C=C\CCCC(=O)O` (stereo not shown) [14,15-EET] here?
Answer: Its value is “improved cell survival”.

Question: What about the “cell death (propidium iodide, % of all cells)” value ([3]; excess 14,15-EET (1 μM) in Arg287Gln-transduced cardiomyocytes, 1.5 hours OGD, 3 hours re-oxygenation) of the same compound?
Answer: The value was 45±1%.

Question: What about the “Infarct Volume” value (mice [1]; PRO (given prior to reperfusion)) of the same compound?
Answer: The value was 12 ± 2 mm^3.

Question: What about the “infarct size after myocardial I/R compared to vehicle” value (mice [1]; given before ischemia or before reperfusion) of the same compound?
Answer: The value was “significantly reduced”.

Question: And the “Infarct Volume” value (mice [1]; [6])?
Answer: The value was 10 ± 1 mm^3.

Question: What about the “bleeding in pilot studies following heparin administration” value (mice [1]; mouse, in vivo) of the same compound?
Answer: The value was “excessive bleeding”.

Question: What about the “reducing I/AAR, injection prior to reperfusion compared to pre-ischemic delivery” value (mice [1]; mouse, in vivo) of the same compound?
Answer: The value was “less effective”.

Question: What about the “infarct size after MCAO” value (mice [4]; 14,15-EET 1 μg over 24 hours via osmotic minipump, jugular vein, vehicle 34.5±8.6%) of the same compound?
Answer: Its value is 10.9±4.3%.

Question: With `O=C(O)CCCCCCCCCCCNC(=O)NC12CC3CC(CC(C3)C1)C2` [AUDA, 12-(3-adamantan-1-yl-ureido)-dodecanoic acid] as the compound, how does the MRT ([2]; C57Bl/6, mouse, brain, intraperitoneal, 10 mg/kg, read-out: mean residence time in brain) read?
Answer: Its MRT is 6 h.

Question: What about the “levels detected in homogenates of brain tissue” value [2] of the same compound?
Answer: Its value is “significant levels”.

Question: What about the “half-time elimination in brain” value [2, 7] of the same compound?
Answer: Its value is 4 h.

Question: And the “time to maximum concentration in brain” value [2, 7]?
Answer: Its value is no more than 3 h.

Question: And the “peak concentration in plasma” value [5, 8]?
Answer: Its value is 52 nmol/L.

Question: What about the “time of peak concentration in plasma” value [5, 8] of the same compound?
Answer: Its value is 1 h.

Question: And the “half time of elimination in plasma” value ([5]; AUDA-BE 10 mg/kg intraperitoneal, non-compartmental model)?
Answer: The value was 7 h.

Question: And the “maximum concentration in plasma” value ([5]; AUDA-BE 40 mg/kg intraperitoneal, within the first hour)?
Answer: The value was 4 µmol/L.

Question: And the MRT ([5]; C57Bl/6, mouse, plasma, ip, 10 mg/kg, read-out: mean residence time in plasma)?
Answer: Its MRT is 9 h.

Question: With `CCCCCC1OC1CCCCCCC/C=C\CCCC(=O)O` (stereo not shown) [14,15-EEZE, 14,15-epoxyeicosa-5(Z)-enoic acid] as the compound, how does the “infarct size after MCAO” value (mice [4]; sEHKO mice, 10 μg over 24 hours via minipump, mean±SD, vehicle-treated sEHKO 9.1±9.5) read?
Answer: The value was 9.4±12.4.
